# Data from ChEMBL document CHEMBL1158259, “Tonkinecin, a novel bioactive annonaceous acetogenin from Uvaria tonkinesis” (J Nat Prod, 1996).
# How the values were obtained:
# Type in all cases: functional, cell-based
# [1] = system: HL-60; assay: Cytotoxicity against human HL60 cells after 5 days by MTT assay; details: HL-60, 120 h
# [2] = Cytotoxicity against human BGC cells after 5 days by MTT assay; details: 120 h
# [3] = system: HCT-8; assay: Cytotoxicity against human HCT8 cells after 5 days by MTT assay; details: HCT-8, 120 h
# [4] = system: Bel-7402; assay: Cytotoxicity against human Bel7402 cells after 5 days by MTT assay; details: Bel-7402, 120 h
smiles,measurement,setting,value
COc1cc([C@@H]2c3cc4c(cc3[C@@H](O[C@@H]3O[C@@H]5CO[C@@H](C)O[C@H]5[C@H](O)[C@H]3O)[C@H]3COC(=O)[C@H]23)OCO4)cc(OC)c1O [ETOPOSIDE],IC50,[1],0.16 µM
same,IC50,[2],6.7 µM
same,IC50,[3],6.4 µM
same,IC50,[4],1.9 µM
CCCCCCCCCCCC[C@@H](O)[C@H]1CC[C@H]([C@H](O)CCCCCCCCCCC[C@H](O)CCC2=C[C@H](C)OC2=O)O1 [TONKINECIN],IC50,[1],0.52 µM
same,IC50,[2],5.1 µM
same,IC50,[3],0.38 µM
same,IC50,[4],1.5 µM
